Measurements as given in ChEMBL document CHEMBL2331425, “Triazolo and imidazo dihydropyrazolopyrimidine potassium channel antagonists” (Bioorg Med Chem Lett, 2013).

Columns and labels:
[1] = target: T1, Potassium voltage-gated channel subfamily A member 5 (Homo sapiens, UniProt P22460); assay: Antagonist activity at human Kv1.5 expressed in mouse L929 cells assessed as inhibition of delayed rectifier repolarization current by patch clamp assay; format: cell-based
[2] = target: T2, Nuclear receptor subfamily 1 group I member 2 (Homo sapiens, UniProt O75469); assay: Transactivation of PXR (unknown origin)
T2 sequence (O75469 whole entry): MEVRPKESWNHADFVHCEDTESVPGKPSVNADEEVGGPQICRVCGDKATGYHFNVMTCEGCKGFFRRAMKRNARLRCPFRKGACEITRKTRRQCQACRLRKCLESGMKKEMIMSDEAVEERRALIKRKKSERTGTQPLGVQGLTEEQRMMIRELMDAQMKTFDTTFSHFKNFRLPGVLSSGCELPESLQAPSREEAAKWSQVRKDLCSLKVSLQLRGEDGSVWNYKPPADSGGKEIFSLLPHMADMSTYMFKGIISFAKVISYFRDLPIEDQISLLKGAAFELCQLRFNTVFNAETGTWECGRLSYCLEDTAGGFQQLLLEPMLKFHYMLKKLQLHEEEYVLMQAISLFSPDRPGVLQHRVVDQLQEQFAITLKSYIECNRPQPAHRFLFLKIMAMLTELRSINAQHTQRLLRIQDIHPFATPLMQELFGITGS

hERG (KCNH2) = hERG (KCNH2) (Homo sapiens, UniProt Q12809); assay: Inhibition of human ERG current in HEK293 cells at 10 uM by patch clamp method relative to control; format: cell-based; conditions: HEK293 cells expressing human ERG
[3] = target: T1, Potassium voltage-gated channel subfamily A member 5; assay: Antagonist activity at human Kv1.5 expressed in mouse L929 cells assessed as inhibition of delayed rectifier repolarization current at 0.3 uM by patch clamp assay relative to control; format: cell-based
[4] = Clearance in Sprague-Dawley rat at 1 mg/kg, iv; format: ADME, organism-based; set-up: dose 1 mg/kg, route intravenous; conditions: in vivo
[5] = Half life in Sprague-Dawley rat at 1 mg/kg, iv; format: ADME, organism-based; set-up: dose 1 mg/kg, route intravenous; conditions: in vivo
Cytochrome P450 3A4 = Cytochrome P450 3A4 (Homo sapiens, UniProt P08684); assay: Inhibition of CYP3A4 (unknown origin); format: ADME
Cytochrome P450 2D6 = Cytochrome P450 2D6 (Homo sapiens, UniProt P10635); assay: Inhibition of CYP2D6 (unknown origin); format: ADME
Cytochrome P450 2C19 = Cytochrome P450 2C19 (Homo sapiens, UniProt P33261); assay: Inhibition of CYP2C19 (unknown origin); format: ADME
Cytochrome P450 2C9 = Cytochrome P450 2C9 (Homo sapiens, UniProt P11712); assay: Inhibition of CYP2C9 (unknown origin); format: ADME
Cytochrome P450 1A2 = target: T3, Cytochrome P450 1A2 (Homo sapiens, UniProt P05177); assay: Inhibition of CYP1A2 (unknown origin); format: ADME
T3 sequence (P05177 whole entry): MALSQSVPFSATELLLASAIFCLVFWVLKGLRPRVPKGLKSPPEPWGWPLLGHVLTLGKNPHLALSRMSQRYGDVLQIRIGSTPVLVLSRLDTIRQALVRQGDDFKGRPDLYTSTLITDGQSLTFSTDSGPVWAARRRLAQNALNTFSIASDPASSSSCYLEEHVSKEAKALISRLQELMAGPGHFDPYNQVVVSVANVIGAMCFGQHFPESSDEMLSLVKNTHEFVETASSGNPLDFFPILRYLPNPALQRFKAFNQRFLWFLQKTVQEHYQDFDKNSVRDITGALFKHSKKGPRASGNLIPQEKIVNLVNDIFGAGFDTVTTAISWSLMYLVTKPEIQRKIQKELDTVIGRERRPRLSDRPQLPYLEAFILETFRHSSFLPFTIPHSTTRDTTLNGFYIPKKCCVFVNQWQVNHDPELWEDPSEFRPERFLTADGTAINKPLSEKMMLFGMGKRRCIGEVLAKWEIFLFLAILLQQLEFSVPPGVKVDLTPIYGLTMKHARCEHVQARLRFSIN

[6] = target: Voltage-gated L-type calcium channel (Homo sapiens, UniProt Q13936+Q13698+Q01668+O60840); assay: Inhibition of L-type calcium channel (unknown origin)
[7] = Inhibition of sodium channel (unknown origin); set-up: species or system Homo sapiens
[8] = Drug uptake in Sprague-Dawley rat brain at 0.3 mg/kg, iv administered as 5 mins infusion measured after 10 mins; format: ADME, organism-based; set-up: dose 0.3 mg/kg, route intravenous; conditions: read-out: Drug uptake
[9] = Plasma concentration in Sprague-Dawley rat at 0.3 mg/kg, iv administered as 5 mins infusion measured after 10 mins; format: ADME, organism-based; set-up: dose 0.3 mg/kg, route intravenous
[10] = Plasma concentration in Sprague-Dawley rat at 0.3 mg/kg, iv administered as 5 mins infusion measured at 5 mins; format: ADME, organism-based; set-up: dose 0.3 mg/kg, route intravenous
Rattus norvegicus [11] = assay: Antiarrhythmic activity in Sprague-Dawley rat assessed as decrease in ventricular effective refractory period at 0.3 mg/kg, iv administered as 5 mins infusion measured after 5 mins relative to control; format: functional, Heart; set-up: scale not given: the % may be the effect or the level left
Rattus norvegicus [12] = assay: Antiarrhythmic activity in Sprague-Dawley rat assessed as decrease in QT interval at 0.3 mg/kg, iv administered as 5 mins infusion measured after 5 mins relative to control; format: functional, Heart; set-up: scale not given: the % may be the effect or the level left
Rattus norvegicus [13] = assay: Antiarrhythmic activity in Sprague-Dawley rat assessed as increase in heart rate at 0.3 mg/kg, iv administered as 5 mins infusion measured after 5 mins relative to control; format: functional
Rattus norvegicus [14] = assay: Antiarrhythmic activity in Sprague-Dawley rat assessed as decrease in blood pressure at 0.3 mg/kg, iv administered as 5 mins infusion measured after 5 mins; format: functional; set-up: scale not given: the % may be the effect or the level left

T1 sequence (P22460 whole entry): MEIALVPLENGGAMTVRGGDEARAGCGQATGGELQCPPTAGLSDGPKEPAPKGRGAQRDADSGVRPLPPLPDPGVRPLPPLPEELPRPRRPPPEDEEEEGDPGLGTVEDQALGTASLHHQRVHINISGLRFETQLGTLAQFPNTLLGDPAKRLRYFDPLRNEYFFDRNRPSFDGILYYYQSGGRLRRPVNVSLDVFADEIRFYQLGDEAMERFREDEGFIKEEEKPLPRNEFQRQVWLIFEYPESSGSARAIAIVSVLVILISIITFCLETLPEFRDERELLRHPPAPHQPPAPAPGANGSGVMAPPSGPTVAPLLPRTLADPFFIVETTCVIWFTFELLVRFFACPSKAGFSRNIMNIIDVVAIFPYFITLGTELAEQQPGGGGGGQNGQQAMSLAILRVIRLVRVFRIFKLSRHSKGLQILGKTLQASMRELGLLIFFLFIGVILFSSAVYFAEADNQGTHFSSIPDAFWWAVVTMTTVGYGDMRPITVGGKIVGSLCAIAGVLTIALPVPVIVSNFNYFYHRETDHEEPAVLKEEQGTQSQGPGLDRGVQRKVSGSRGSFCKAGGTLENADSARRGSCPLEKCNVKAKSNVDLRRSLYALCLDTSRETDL
Chain of hERG (KCNH2) (Q12809 whole entry): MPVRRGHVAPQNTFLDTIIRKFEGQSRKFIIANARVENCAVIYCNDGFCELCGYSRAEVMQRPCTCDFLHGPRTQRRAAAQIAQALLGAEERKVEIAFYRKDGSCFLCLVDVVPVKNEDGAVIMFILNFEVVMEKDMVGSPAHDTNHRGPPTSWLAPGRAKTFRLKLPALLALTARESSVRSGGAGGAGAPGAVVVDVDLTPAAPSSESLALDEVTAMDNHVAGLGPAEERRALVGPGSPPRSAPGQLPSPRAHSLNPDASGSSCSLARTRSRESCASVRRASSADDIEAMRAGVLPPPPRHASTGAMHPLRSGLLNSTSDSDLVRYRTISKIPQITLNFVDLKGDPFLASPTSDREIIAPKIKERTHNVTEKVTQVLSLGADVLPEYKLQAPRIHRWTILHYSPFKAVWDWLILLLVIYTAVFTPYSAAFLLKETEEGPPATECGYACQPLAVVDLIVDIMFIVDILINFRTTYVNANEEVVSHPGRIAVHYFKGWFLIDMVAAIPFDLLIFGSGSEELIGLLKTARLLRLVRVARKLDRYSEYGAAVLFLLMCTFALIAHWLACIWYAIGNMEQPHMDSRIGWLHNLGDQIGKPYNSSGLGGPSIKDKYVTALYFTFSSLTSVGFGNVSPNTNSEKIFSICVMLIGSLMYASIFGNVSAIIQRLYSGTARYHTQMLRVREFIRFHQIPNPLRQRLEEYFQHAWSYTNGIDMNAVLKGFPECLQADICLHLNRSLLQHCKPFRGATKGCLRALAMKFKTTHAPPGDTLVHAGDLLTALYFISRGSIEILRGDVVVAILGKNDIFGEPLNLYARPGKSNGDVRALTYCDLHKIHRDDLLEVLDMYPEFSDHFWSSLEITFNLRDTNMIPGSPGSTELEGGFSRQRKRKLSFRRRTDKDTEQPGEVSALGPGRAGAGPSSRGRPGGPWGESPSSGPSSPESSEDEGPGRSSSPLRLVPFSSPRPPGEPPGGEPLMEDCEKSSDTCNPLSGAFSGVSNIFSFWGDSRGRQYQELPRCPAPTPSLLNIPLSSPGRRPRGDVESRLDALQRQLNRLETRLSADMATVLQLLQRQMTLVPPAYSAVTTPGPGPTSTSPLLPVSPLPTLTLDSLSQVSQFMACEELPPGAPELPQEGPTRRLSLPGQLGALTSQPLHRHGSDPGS
Chain of Cytochrome P450 2C9 (P11712 whole entry): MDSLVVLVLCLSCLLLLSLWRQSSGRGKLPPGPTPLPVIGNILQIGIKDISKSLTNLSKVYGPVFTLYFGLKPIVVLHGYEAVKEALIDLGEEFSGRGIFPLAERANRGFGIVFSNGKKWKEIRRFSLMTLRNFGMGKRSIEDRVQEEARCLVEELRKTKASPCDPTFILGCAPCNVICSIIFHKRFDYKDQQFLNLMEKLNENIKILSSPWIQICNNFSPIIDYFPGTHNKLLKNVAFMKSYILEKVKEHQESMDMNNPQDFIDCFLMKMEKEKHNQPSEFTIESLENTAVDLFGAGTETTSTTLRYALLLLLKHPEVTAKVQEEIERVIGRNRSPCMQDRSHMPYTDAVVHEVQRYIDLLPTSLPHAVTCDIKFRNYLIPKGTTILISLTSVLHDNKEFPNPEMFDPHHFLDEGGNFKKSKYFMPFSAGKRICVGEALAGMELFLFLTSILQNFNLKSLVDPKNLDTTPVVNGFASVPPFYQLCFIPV
Chain of Cytochrome P450 3A4 (P08684 whole entry): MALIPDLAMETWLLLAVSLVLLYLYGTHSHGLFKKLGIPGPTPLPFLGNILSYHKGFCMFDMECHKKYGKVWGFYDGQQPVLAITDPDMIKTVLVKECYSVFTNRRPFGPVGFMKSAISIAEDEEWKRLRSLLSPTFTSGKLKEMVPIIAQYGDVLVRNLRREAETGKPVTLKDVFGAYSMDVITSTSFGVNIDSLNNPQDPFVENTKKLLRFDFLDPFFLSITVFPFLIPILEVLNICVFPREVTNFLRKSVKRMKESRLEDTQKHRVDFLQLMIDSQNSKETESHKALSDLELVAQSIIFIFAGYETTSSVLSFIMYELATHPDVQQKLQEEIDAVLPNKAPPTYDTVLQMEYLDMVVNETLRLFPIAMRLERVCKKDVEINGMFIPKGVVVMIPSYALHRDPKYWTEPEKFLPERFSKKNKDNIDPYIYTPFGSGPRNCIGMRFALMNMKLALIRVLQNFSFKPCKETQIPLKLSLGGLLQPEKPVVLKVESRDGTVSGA
Chain of Cytochrome P450 2C19 (P33261 whole entry): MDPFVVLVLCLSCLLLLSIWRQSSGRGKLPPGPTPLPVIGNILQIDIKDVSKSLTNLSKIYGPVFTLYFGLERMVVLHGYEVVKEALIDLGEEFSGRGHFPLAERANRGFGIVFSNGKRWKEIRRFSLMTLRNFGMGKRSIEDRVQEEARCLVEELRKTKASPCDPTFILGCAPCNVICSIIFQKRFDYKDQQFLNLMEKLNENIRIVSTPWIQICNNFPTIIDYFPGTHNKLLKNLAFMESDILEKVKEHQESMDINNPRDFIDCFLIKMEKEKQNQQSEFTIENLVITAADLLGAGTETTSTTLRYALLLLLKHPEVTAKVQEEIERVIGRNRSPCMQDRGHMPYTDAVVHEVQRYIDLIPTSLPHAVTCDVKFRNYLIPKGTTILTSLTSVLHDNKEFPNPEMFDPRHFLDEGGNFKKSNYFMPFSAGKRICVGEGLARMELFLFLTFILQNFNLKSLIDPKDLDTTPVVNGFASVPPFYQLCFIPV
Chain of Cytochrome P450 2D6 (P10635 whole entry): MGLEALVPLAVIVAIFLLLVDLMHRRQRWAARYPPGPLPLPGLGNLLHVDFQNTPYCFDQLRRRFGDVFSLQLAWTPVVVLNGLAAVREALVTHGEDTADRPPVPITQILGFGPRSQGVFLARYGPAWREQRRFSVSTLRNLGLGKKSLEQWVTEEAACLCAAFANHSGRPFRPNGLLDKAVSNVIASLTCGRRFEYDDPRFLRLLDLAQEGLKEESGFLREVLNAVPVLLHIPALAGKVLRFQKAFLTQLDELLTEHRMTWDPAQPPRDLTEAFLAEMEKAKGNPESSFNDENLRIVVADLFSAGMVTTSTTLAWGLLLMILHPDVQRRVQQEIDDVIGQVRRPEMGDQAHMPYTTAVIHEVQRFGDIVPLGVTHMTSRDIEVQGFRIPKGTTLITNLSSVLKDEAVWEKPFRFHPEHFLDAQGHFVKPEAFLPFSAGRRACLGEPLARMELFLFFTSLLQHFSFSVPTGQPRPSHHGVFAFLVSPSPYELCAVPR

CC1=C(c2ncn(-c3ccccc3C)n2)[C@@H](c2ccc(Cl)c(Cl)c2)n2nc(C)cc2N1
IC50 [1]: 722 nM

CC1=C(c2ncnn2Cc2ccccc2)[C@@H](c2ccc(Cl)c(Cl)c2)n2nccc2N1
IC50 [1]: 135 nM

COc1cccc(-n2ncnc2C2=C(C)Nc3cc(C(F)(F)F)nn3[C@@H]2c2ccc(Cl)c(Cl)c2)n1
EC20 [2]: 960 nM
inhibition at 10 µM (hERG (KCNH2)): 98%
IC50 [1]: 87 nM

CC1=C(c2ncn(-c3ccc(C)cc3)n2)[C@@H](c2ccc(Cl)c(Cl)c2)n2nc(C)cc2N1
inhibition [3]: 14%

CC1=C(c2ncnn2-c2ccc(F)cc2)[C@@H](c2ccc(Cl)c(Cl)c2)n2nccc2N1
IC50 [1]: 115 nM

CC1=C(c2ncnn2-c2ccc(C)cc2)[C@@H](c2ccc(Cl)c(Cl)c2)n2nccc2N1
IC50 [1]: 80 nM

CCOCCn1ccnc1C1=C(C)Nc2cc(C(F)(F)F)nn2[C@@H]1c1ccc(Cl)c(Cl)c1
clearance [4]: 45 mL/min/kg
half-life [5]: 36 min
EC20 [2]: 640 nM
IC50 [1]: 98 nM

CC1=C(c2ncnn2-c2cccc(C)n2)[C@@H](c2ccc(Cl)c(Cl)c2)n2nc(C(F)(F)F)cc2N1
EC20 [2]: 440 nM
IC50 [1]: 211 nM

CCn1ccnc1C1=C(C)Nc2cc(C(F)(F)F)nn2[C@@H]1c1ccc(Cl)c(Cl)c1
EC20 [2]: 110 nM
IC50 [1]: 128 nM

CC1=C(c2ncnn2-c2cccc(F)n2)[C@@H](c2ccc(Cl)c(Cl)c2)n2nc(C(F)(F)F)cc2N1
EC20 [2]: 70 nM
IC50 [1]: 256 nM

COc1ccccc1-n1cnc(C2=C(C)Nc3cc(C)nn3[C@@H]2c2ccc(Cl)c(Cl)c2)n1
inhibition [3]: 4%

CC1=C(c2ncnn2C2CCCCC2)[C@@H](c2ccc(Cl)c(Cl)c2)n2nccc2N1
inhibition at 10 µM (hERG (KCNH2)): 87%
IC50 [1]: 59 nM

CC1=C(c2ncnn2CCC(F)(F)F)[C@@H](c2ccc(Cl)c(Cl)c2)n2nccc2N1
IC50 [1]: 151 nM

CC1=C(c2ncnn2CC2CC2)[C@@H](c2ccc(Cl)c(Cl)c2)n2nccc2N1
IC50 [1]: 229 nM

COCc1cc2n(n1)[C@H](c1ccc(Cl)c(Cl)c1)C(c1ncnn1C1CCC1)=C(C)N2
inhibition [3]: 25%

CC1=C(c2ncnn2C2CCC(C(F)(F)F)CC2)[C@@H](c2ccc(Cl)c(Cl)c2)n2nc(C(F)(F)F)cc2N1 (single isomer, unassigned; isomer 2)
INH (Cytochrome P450 3A4): 25 µM
INH (Cytochrome P450 2D6): 27 µM
INH (Cytochrome P450 2C19): 7 µM
INH (Cytochrome P450 2C9): 8 µM
INH (Cytochrome P450 1A2): 40 µM
EC20 [2]: 3600 nM
IC50 [1]: 607 nM

CC1=C(c2ncn(-c3ccccc3F)n2)[C@@H](c2ccc(Cl)c(Cl)c2)n2nc(C)cc2N1
inhibition [3]: 23%

CC1=C(c2ncnn2CCCC(F)(F)F)[C@@H](c2ccc(Cl)c(Cl)c2)n2nccc2N1
IC50 [1]: 103 nM

CC1=C(c2ncnn2C2CCC(C(F)(F)F)CC2)[C@@H](c2ccc(Cl)c(Cl)c2)n2nc(C(F)(F)F)cc2N1 (single isomer, unassigned; isomer 1)
IC50 [6]: 5200 nM
IC50 [7]: 46000 nM
concentration at 10 min [8]: 30 nM
concentration at 10 min [9]: 430 nM
concentration at 5 min [10]: 1600 nM
Activity (Rattus norvegicus [11]): 25%
Activity (Rattus norvegicus [12]): 8%
Activity (Rattus norvegicus [13]): 6%
Activity (Rattus norvegicus [14]): 28%
clearance [4]: 29 mL/min/kg
half-life [5]: 72 min
INH (Cytochrome P450 3A4): 40 µM
INH (Cytochrome P450 2D6): 22 µM
INH (Cytochrome P450 2C19): 6 µM
INH (Cytochrome P450 2C9): 7 µM
EC20 [2]: 5000 nM
inhibition at 10 µM (hERG (KCNH2)): 38%
IC50 [1]: 133 nM

CC1=C(c2nccn2C(C)C)[C@@H](c2ccc(Cl)c(Cl)c2)n2nc(C(F)(F)F)cc2N1
clearance [4]: 63 mL/min/kg
half-life [5]: 54 min
EC20 [2]: 110 nM
IC50 [1]: 204 nM

CC1=C(c2ncnn2-c2cccc(C(F)(F)F)n2)[C@@H](c2ccc(Cl)c(Cl)c2)n2nc(C(F)(F)F)cc2N1
EC20 [2]: 140 nM
IC50 [1]: 96 nM

CC1=C(c2ncnn2CCO)[C@@H](c2ccc(Cl)c(Cl)c2)n2nccc2N1
inhibition [3]: 6%

CC1=C(c2ncnn2C2CCC2)[C@@H](c2ccc(Cl)c(Cl)c2)n2nc(C(C)(C)C)cc2N1
IC50 [1]: 283 nM
